# Article PMC10449633 (Nature Chemical Biology, 2023)
# Several values for one entry are separate records, joined by “and”; a condition that tells them apart may be missing. Identical values can stand only once. Like-named read-outs stand apart in the source and are kept apart here. Numbered stars: 1 amine (or outer) side, 2 acyl side, 3 side chain; on linkers, the order of the positions; unused ones are H or OH. Square brackets hold non-standard residues; d marks the D form. Peptide text beside a SMILES is read from it. NMeTrp(1-(4-Br-benzyl)) = CN[C@@H](Cc1cn(Cc2ccc(Br)cc2)c2ccccc12)C(=O)O; X3 = CCn1cc(C[C@@H](C(=O)[*:2])N(C)[*:1])c2ccccc21; Butanoyl(2R-oxy,4-CN) = N#CCC[C@@H](O)C(=O)O; Abu(4,4,4-F3) = N[C@@H](CC(F)(F)F)C(=O)O; NMeL = CN[C@@H](CC(C)C)C(=O)O; NMeA = CN[C@@H](C)C(=O)O
# Experiments:
# [1] = system: collagen antibody-induced arthritis in BALB/c mice; assay: Anticollagen antibody-induced arthritis model, clinical scores; format: in vivo, mouse; settings: individual mice
# [2] = molecular target: T1, Sec61 (Homo sapiens, UniProt P61619); assay: cell-based; settings: for IC50: 24 h, range in brackets
# T1 construct: endogenous in cells
# [3] = system: SARS-CoV-2; format: cell-based; settings: 48 h
# [4] = system: SARS-CoV-2; format: cell-based; settings: 48 h; remark: listed apart in the source
# [5] = system: SARS-CoV-2; settings: infected 48 h
# T1 sequence (P60059 whole entry): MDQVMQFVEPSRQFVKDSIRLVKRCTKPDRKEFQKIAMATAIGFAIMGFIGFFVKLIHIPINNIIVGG
# T1 sequence (P61619 whole entry): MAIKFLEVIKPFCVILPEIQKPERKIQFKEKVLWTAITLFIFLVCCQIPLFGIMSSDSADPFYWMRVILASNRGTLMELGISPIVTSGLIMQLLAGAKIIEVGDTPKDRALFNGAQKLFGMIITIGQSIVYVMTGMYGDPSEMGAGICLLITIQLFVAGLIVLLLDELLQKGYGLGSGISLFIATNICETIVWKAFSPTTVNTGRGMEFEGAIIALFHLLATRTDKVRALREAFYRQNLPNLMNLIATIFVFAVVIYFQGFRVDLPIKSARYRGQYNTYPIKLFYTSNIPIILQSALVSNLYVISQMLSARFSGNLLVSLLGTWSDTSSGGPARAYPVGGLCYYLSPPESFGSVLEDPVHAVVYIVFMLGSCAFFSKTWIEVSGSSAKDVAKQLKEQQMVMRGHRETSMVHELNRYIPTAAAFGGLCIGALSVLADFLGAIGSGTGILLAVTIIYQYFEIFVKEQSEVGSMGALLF
# T1 sequence (P60468 whole entry, further chain): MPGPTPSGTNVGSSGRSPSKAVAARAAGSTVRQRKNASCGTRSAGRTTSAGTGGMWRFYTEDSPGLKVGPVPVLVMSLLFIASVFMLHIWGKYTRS
compound,measurement,setting,value
"C[C@@H]1C[C@H]2[C@@H]3CCC4=CC(=O)C=C[C@]4(C)[C@@]3(F)[C@@H](O)C[C@]2(C)[C@@]1(O)C(=O)CO [dexamethasone, reference compound]",Clinical score,"[1]; 1.5mg/kg IP QODx3, day 4",1 (5×) and 2 (4×) and 3
same,Clinical score,"[1]; 1.5mg/kg IP QODx3, day 5",3 (5×) and 4 (2×) and 2 and 5 (2×)
same,Clinical score,"[1]; 1.5mg/kg IP QODx3, day 6",4 (2×) and 6 (6×) and 2 and 5
same,Clinical score,"[1]; 1.5mg/kg IP QODx3, day 7",6 (4×) and 4 and 7 (3×) and 5 and 8
same,Clinical score,"[1]; 1.5mg/kg IP QODx3, day 10",6 (3×) and 7 (2×) and 9 (2×) and 5 and 11 and 8
same,Clinical score,"[1]; 1.5mg/kg IP QODx3, day 11",7 (3×) and 6 (2×) and 8 (2×) and 4 and 9 and 10
same,Clinical score,"[1]; 1.5mg/kg IP QODx3, day 12",7 (4×) and 6 (2×) and 9 (3×) and 3
same,Clinical score,"[1]; 1.5mg/kg IP QODx3, day 13",7 (3×) and 5 and 6 (2×) and 8 (2×) and 3 and 9
same,Clinical score,"[1]; 1.5mg/kg IP QODx3, day 14",6 (2×) and 5 and 8 (2×) and 7 (2×) and 3 and 10 and 9
"CCn1cc(C[C@H]2C(=O)N[C@@H](CC(C)C)C(=O)N(C)[C@@H](C)C(=O)O[C@H](CCC#N)C(=O)N[C@@H](CC(F)(F)F)C(=O)N(C)[C@@H](CC(C)C)C(=O)N[C@@H](CC(F)(F)F)C(=O)N2C)c2ccccc21 [KZR-9508] (cyclo(L[NMeA][Butanoyl(2R-oxy,4-CN)][Abu(4,4,4-F3)][NMeL][Abu(4,4,4-F3)][X3]))",selectivity compared with KZR-8445,[2],greater selectivity
same,IC50,"[2]; HER3 signal peptide-GLuc, read-out: IC50 (nM) HER3",103 nM and ~100 nM
same,IC50,"[2]; PD1 signal peptide-GLuc, read-out: IC50 (nM) PD1",388 nM
same,loss of potency relative to KZR-8445,[2]; four of five GLuc reporters,10–20 fold
same,IC50,"[2]; full-length IL-2-GLuc, read-out: IC50 (nM) IL-2",1420 nM
same,IC50,"[2]; full-length TNFα-GLuc, read-out: IC50 (nM) TNFα",908 nM
same,IC50,"[2]; prolactin signal peptide-GLuc, read-out: IC50 (nM) Prolactin",25600 nM
"CC(C)C[C@@H]1NC(=O)[C@H](Cc2cn(Cc3ccc(Br)cc3)c3ccccc23)N(C)C(=O)[C@H](CC(F)(F)F)NC(=O)[C@H](CC(C)C)N(C)C(=O)[C@H](CC(F)(F)F)NC(=O)[C@@H](CCC#N)OC(=O)[C@H](C)N(C)C1=O [KZR-508445] (cyclo(L[NMeA][Butanoyl(2R-oxy,4-CN)][Abu(4,4,4-F3)][NMeL][Abu(4,4,4-F3)][NMeTrp(1-(4-Br-benzyl))]))",Clinical score,"[1]; 2.5 mg/kg IV QODx3, day 13",9 (2×) and 6 and 11 (2×) and 4 and 12 and 8 and 13 and 7
same,Clinical score,"[1]; 2.5 mg/kg IV QODx3, day 14",9 (2×) and 5 and 11 (2×) and 2 and 12 and 10 and 13 and 7
same,Clinical score,"[1]; 5 mg/kg IV QODx3, day 13",11 (2×) and 5 and 10 and 4 (3×) and 8 and 7 and 9
same,Clinical score,"[1]; 5 mg/kg IV QODx3, day 14",12 and 5 and 8 (2×) and 4 (2×) and 3 and 6 and 9 and 11
same,Clinical score,"[1]; 10 mg/kg IV QODx3, day 13",4 and 6 (3×) and 9 (2×) and 5 (2×) and 3 and 7
same,Clinical score,"[1]; 10 mg/kg IV QODx3, day 14",5 (3×) and 7 (2×) and 9 and 6 and 8 (2×) and 3
same,Clinical score,"[1]; 20 mg/kg IV QODx3, day 4",1 (4×) and 2 (2×)
same,Clinical score,"[1]; 20 mg/kg IV QODx3, day 13",1 (2×) and 3 (2×) and 2 and 0 and 4
same,Clinical score,"[1]; 20 mg/kg IV QODx3, day 14",1 (2×) and 3 (3×) and 2 and 0
same,Clinical score,"[1]; 20 mg/kg IV QW, day 13",0 and 2 and 9 and 6 (2×) and 7 (2×) and 8 (2×) and 4
same,Clinical score,"[1]; 20 mg/kg IV QW, day 14",0 and 2 and 9 (2×) and 7 (2×) and 6 and 8 (2×) and 5
"CCn1cc(C[C@H]2C(=O)N[C@@H](CC(C)C)C(=O)N(C)[C@@H](C)C(=O)O[C@H](CCC#N)C(=O)N[C@@H](CC(F)(F)F)C(=O)N(C)[C@@H](CC(C)C)C(=O)N[C@@H](CC(F)(F)F)C(=O)N2C)c2ccccc21 [KZR-0509508] (cyclo(L[NMeA][Butanoyl(2R-oxy,4-CN)][Abu(4,4,4-F3)][NMeL][Abu(4,4,4-F3)][X3]))",GLuc reporter raw signal (replicates),"[2]; HER3, Concentration 0.32",2917200 and 2920600 and 2895100
same,GLuc reporter raw signal (replicates),"[2]; HER3, Concentration 40",2324600 and 2421500 and 2482600
same,GLuc reporter raw signal (replicates),"[2]; HER3, Concentration 200",860870 and 901980 and 850270
same,GLuc reporter raw signal (replicates),"[2]; HER3, Concentration 1000",128950 and 127590 and 122180
same,GLuc reporter raw signal (replicates),"[2]; HER3, Concentration 5000",21107 and 19954 and 21458
same,GLuc reporter raw signal (replicates),"[2]; HER3, Concentration 25000",18661 and 19673 and 20195
same,GLuc reporter raw signal (replicates),"[2]; IL2, Concentration 0.32",2617800 and 2680800 and 2713900
same,GLuc reporter raw signal (replicates),"[2]; IL2, Concentration 8",2560100 and 2737500 and 2592900
same,GLuc reporter raw signal (replicates),"[2]; IL2, Concentration 40",2448500 and 2433000 and 2516300
same,GLuc reporter raw signal (replicates),"[2]; IL2, Concentration 200",2434300 and 2250900 and 2386200
same,GLuc reporter raw signal (replicates),"[2]; IL2, Concentration 1000",1366100 and 1331100 and 1340300
same,GLuc reporter raw signal (replicates),"[2]; IL2, Concentration 5000",148660 and 137160 and 137620
same,GLuc reporter raw signal (replicates),"[2]; IL2, Concentration 25000",72344 and 71940 and 72808
same,GLuc reporter raw signal (replicates),"[2]; PD1, Concentration 0.32",1140200 and 1151600 and 1079300
same,GLuc reporter raw signal (replicates),"[2]; PD1, Concentration 8",1090400 and 1094000 and 1069700
same,GLuc reporter raw signal (replicates),"[2]; PD1, Concentration 40",1001600 and 1054300 and 960410
same,GLuc reporter raw signal (replicates),"[2]; PD1, Concentration 200",810270 and 826880 and 727000
same,GLuc reporter raw signal (replicates),"[2]; PD1, Concentration 1000",298160 and 288700 and 294700
same,GLuc reporter raw signal (replicates),"[2]; PD1, Concentration 5000",19269 and 21595 and 21074
same,GLuc reporter raw signal (replicates),"[2]; PD1, Concentration 25000",12135 and 12576 and 11044
same,GLuc reporter raw signal (replicates),"[2]; Prolactin, Concentration 0.32",8343700 and 8651000 and 8237500
same,GLuc reporter raw signal (replicates),"[2]; Prolactin, Concentration 8",8140000 and 8910000 and 8852700
same,GLuc reporter raw signal (replicates),"[2]; Prolactin, Concentration 40",8482300 and 8946000 and 7991900
same,GLuc reporter raw signal (replicates),"[2]; Prolactin, Concentration 200",8151300 and 9013100 and 8191700
same,GLuc reporter raw signal (replicates),"[2]; Prolactin, Concentration 1000",7614900 and 8029100 and 7622300
same,GLuc reporter raw signal (replicates),"[2]; Prolactin, Concentration 5000",6257700 and 6043200 and 6299800
same,GLuc reporter raw signal (replicates),"[2]; Prolactin, Concentration 25000",4760600 and 4742900 and 4623400
same,GLuc reporter raw signal (replicates),"[2]; TNFa, Concentration 0.32",157540 and 153990 and 156290
same,GLuc reporter raw signal (replicates),"[2]; TNFa, Concentration 8",177590
same,GLuc reporter raw signal (replicates),"[2]; TNFa, Concentration 40",174140 and 177930 and 180980
same,GLuc reporter raw signal (replicates),"[2]; TNFa, Concentration 200",165100 and 188550 and 172890
same,GLuc reporter raw signal (replicates),"[2]; TNFa, Concentration 1000",101080 and 103620 and 107580
same,GLuc reporter raw signal (replicates),"[2]; TNFa, Concentration 5000",30162 and 28185 and 30634
same,GLuc reporter raw signal (replicates),"[2]; TNFa, Concentration 25000",17845 and 17474 and 16301
"CC[C@H]1CN2CCc3cc(OC)c(OC)cc3[C@@H]2C[C@@H]1C[C@H]1NCCc2cc(OC)c(OC)cc21 [Emetine, reference compound]",viral genome copy number,[3]; 0.01 uM,24100000 and 12600000 and 15400000
same,viral genome copy number,[3]; 0.04 uM,19500000 and 12600000 and 14500000
same,viral genome copy number,[3]; 0.12 uM,9690000 and 6770000 and 10700000
same,viral genome copy number,[3]; 1.11 uM,81000 and 73500 and 71100
same,viral genome copy number,[3]; 3.33 uM,85400 and 62200 and 61600
same,viral genome copy number,[3]; 10 uM,58200 and 54400 and 71200
same,infectious virus particle production,[4]; 1.11 uM,632.456 TCID50 per milliliter
same,infectious virus particle production,[4]; 3.33 uM,632.456 TCID50 per milliliter and 430.887 TCID50 per milliliter
same,infectious virus particle production,[4]; 10 uM,632.456 TCID50 per milliliter
same,cell viability,[5]; 0.01 uM,70.4141 and 72.6149 and 69.2712
same,cell viability,[5]; 0.04 uM,77.6184 and 78.5394 and 67.5514
same,cell viability,[5]; 0.12 uM,91.8387 and 89.8998 and 85.3326
same,cell viability,[5]; 0.37 uM,98.5387 and 106.593 and 107.116
same,cell viability,[5]; 1.11 uM,85.9306 and 97.0439 and 95.1349
same,cell viability,[5]; 3.33 uM,86.5239 and 91.9706 and 91.8345
same,cell viability,[5]; 10 uM,89.2076 and 95.1684 and 93.0072
